Patent US5843916A, “Cyclic amp analogues, individually and in pairs, to inhibit neoplastic cell growth” (priority 1994, dated 1998)
Where two headings read alike, the source gives them in different places.

Tests used:
[1] = test system: LS-174T colon cancer line; assay: Growth and release from growth inhibition (FIG. 3); type: cell-based, human; conditions: 5 μM
Experimental: 1×10^5 cells/60 mm dish were seeded, and 24 hours later (Day 0), the medium was removed and fresh medium and additives were added then and every 48 hours thereafter. […] The triplicate cell count for each experimental point never varied by more than 10%.

LS-174T = assay: Cell cycle analysis by flow cytometry (Table 3); type: cell-based, human; conditions: 5 μM; 3 days
Experimental: DNA histograms were generated on FACS II by using the DNA intercalating dye propidium iodide as described by Braylan et al. in Cytometry 2: 337-343, 1982. The percentage of cells in each cycle phase was calculated by using a PDP-11/34 computer and software as described by Neckers et al., Mol. Cell. Biol. 6: 4244-4250, 1986.
Breast (MCF-7, MDA-MB-231) and colon (LS-174T) cancer cells in log
phase (untreated control) and 3 days after treatment with 8-C1-cAMP
(10 μM), N^6 -benzyl-cAMP (35 μM), and 8-Cl-adenosine (5
were analyzed for DNA content by flow cytometric analysis as described
below. Similar results were obtained with other breast and colon cancer
^a The paired numbers were derived from two separate experiments.

[2] = test system: p21 ras protein, MCF-7 cells; assay: Western blotting of p21 ras protein (Table 11, FIG. 7); type: cell-based, human
Experimental: Western blotting of p21 protein was performed as described below. […] V is cell lysate from Ha-MuSV-transformed NIH3T3 clone 13-3B-4. M, marker proteins of known molecular weight.
Each lane contained 100 micrograms of protein for SDS-PAGE.
Cellular proteins present in cell extracts were separated by 12% SDS-PAGE and transferred to nitrocellulose sheets in transfer buffer (25 mM Tris, 192 mM glycine, 20% methanol, pH 7.4). Nitrocellulose sheets were washed and first incubated with 3% bovine serum albumin in NTE-NP40 (50 mM Tris-HCl, pH 7.5, 150 mM NaCl, 2 mM EDTA, 0.1% Nonidet P-40) for three hours at 37° C. and then sequentially incubated with medium containing p21 monoclonal antiserum Y13-259 directed against the Ha-MuSV-encoded p21 for sixteen hours at 4° C., rabbit anti-rat IgG for 2.5 hours in an ice water bath, and 5×10^5 cpm/ml ^125 I-protein A for one hour in an ice water bath. The nitrocellulose sheets were air dried and exposed to Kodak XAR film for 12-36 hours at -20° C. Comparison of the resulting autoradiograms with others in which normal rat serum was substituted for p21 monoclonal antibody permitted identification of p21. To provide a reference p21, cell lysates were prepared from NIH 3T3 clone 13-3B-4 that had been transfected with HaMuSV DNA.
The levels of p21 protein are expressed relative to the p21 level in the untreated control cells which is set equal to 1.0 O.D.

[3] = test system: RI cAMP receptor protein, Molt-4 leukemic cells; assay: Photoaffinity labelling of RI cAMP receptor protein (FIG. 9A); type: cell-based, human; conditions: three days; 8-Cl-cAMP 5 μM, DBcAMP 1 mM, 8-Cl-adenosine 5 μM
[4] = test system: c-myc protein, Molt-4 leukemic cells; assay: Western blotting of c-myc protein (FIG. 9B); type: cell-based, human; conditions: three days; 8-Cl-cAMP 5 μM, DBcAMP 1 mM, 8-Cl-adenosine 5 μM
Experimental: The cells were grown in suspension culture in RPMI 1640 medium supplemented with 10% fetal bovine serum, penicillin (50 U/ml), streptomycin (500 μg/mL), 10 mM HEPES buffer, and extra glutamine. […] Surface antigen analysis of HL-60 cells was performed by flow cytometry using a panel of monoclonal antibodies reactive with either myeloid cells or monocytic cells. Terminal deoxynucleotidyl transferase (TdT) was assayed by an immunoperoxidase method using a TdT fluorescence kit. Western blotting of c-myc protein was performed using c-myc antibody 15206D11 (Scripps Clinic and Research Foundation, LaJolla, Calif.).
M, marker proteins of known molecular weight. […] The resulting supernatants were used as cell lysates. […] ND=nondetectable.

MCF-7 = assay: Growth of MCF-7 cells (Tables 3, 11); type: cell-based; conditions: Homo sapiens, MCF7, 72 h, Table 11; 8-Cl-cAMP 10 μM, 8-Cl-adenosine 5 μM, DBcAMP 500 μM; control 100
Experimental: All breast cancer cell lines were grown in IMEM supplemented with 10% fetal bovine serum, HEPES 20 mM, penicillin-streptomycin, and extra glutamine. Colon carcinoma cell lines were grown in EMEM supplemented with 10% FBS, EMEM, NEAA, HEPES 20 mM, extra glutamine, and penicillin-streptomycin. The cells were grown at 37° C. in humidified incubators in an atmosphere of 5% CO2.
For cell growth experiments, 2-3×10^5 cells/60 mm dish were seeded, and 24 hours later (Day 0), the medium was removed, and fresh medium and the additives were added then and every 48 hours thereafter. The compounds of the present invention were added using 100X concentrated stock solutions. At desired times, cell counts in duplicate were performed on a Coulter counter after harvesting the cells with gentle trypsinization.

[5] = test system: breast (MCF-7) and colon (LS-174T) cancer cell lines; assay: Growth inhibition of breast and colon cancer cells (Table 1); type: cell-based, human; conditions: Homo sapiens, 50 μM, average (range)
Experimental: The compounds of the present invention were added using 100X concentrated stock solutions. At desired times, cell counts in duplicate were performed on a Coulter counter after harvesting the cells with gentle trypsinization. […] Cell counts were performed on each of three or more separate experiments, and the average values are expressed as percent growth inhibition as compared with untreated control cells. | ^a The values of percentage growth inhibition were determined from th | doseresponse curve experiments. Each value represents an average value an | range (in parentheses) obtained from three or more separate experiments. | The cell counts in duplicate were performed at day 3 and day 4 after two | treatments (day 0 and day 2) with analogs (seeding on day -1).

[6] = test system: breast and colon cancer lines (MCF-7, T-47D, ZR-75-1, MCF-7ras, MDA-MB-231, BT-20, HBL-100, LS-174T, WiDr, HT-29); conditions: millimolar concentrations; previously reported; cited from earlier work
[7] = test system: disseminated neuroblastomas; conditions: combined drug regimen; cited from earlier work
YAC lymphoma cell = conditions: mouse, in vivo; cited from earlier work

Compound: Nc1ncnc2c1nc(Cl)n2[C@@H]1O[C@H](CO)[C@@H](O)[C@H]1O [8-Cl-adenosine]
- cell growth after release from treatment [1]: did not resume their growth up to two weeks after the release from the treatment
- cell growth during treatment [1]: marked reduction in cell growth and eventually stopped replicating within three to four days
- cell cycle phase distribution (LS-174T): appreciable increase of the cell population in G1 phase with a marked reduction in S-phase
- p21 (Relative Level) ([2]; 3 days, 8-Cl-cAMP 10 μM, 8-Cl-adenosine 5 μM, DBcAMP 500 μM, control = 1.0 O.D.): 1.0 ± 0.1
- p21 level ([2]; three days): did not appreciably affect the p21 level
- RI receptor protein level [3]: not observed
- c-myc protein level [4]: not observed
- activity at 5 µM (MCF-7): 38%

Compound: CCCC(=O)Nc1ncnc2c1ncn2[C@@H]1O[C@@H]2COP(=O)(O)O[C@H]2[C@H]1O [N^6 -butyryl-cAMP]
- inhibition at 50 µM ([5]; 72 h, day 3, read-out: % Growth Inhibition, Day 3): 0%
- inhibition at 50 µM ([5]; 96 h, day 4, read-out: % Growth Inhibition, Day 4): 0%
- growth inhibition [6]: growth inhibition only in the hormone-dependent breast cancer lines

Compound: COc1ccc(Cc2nccc3cc(OC)c(OC)cc23)cc1OC [papaverine]
- clinical result [7]: promising results

Compound: cholera toxin
- inhibition of YAC lymphoma cell proliferation (YAC lymphoma cell): almost complete inhibition of YAC lymphoma cell proliferation for up to four days
